Tested on: Male CD-1 mice
Experiment: mouse forced swim test, immobility time 24 h after treatment
Format: in vivo
Settings: for Holm-Šídák post-hoc comparison, group compared vehicle (p, immobility time) / minimum effective dose to reduce immobility time in the forced swim test / doses at which immobility time in the forced swim test was reduced (effective doses): 24 h after treatment; for minimum effective dose to reduce immobility time in the forced swim test / shape of dose response in the forced swim test / doses at which immobility time in the forced swim test was reduced (effective doses): male mice, i.p.; for shape of dose response in the forced swim test: tested range up to 100 mg/kg; for doses at which immobility time in the forced swim test was reduced (effective doses): relative to vehicle
Procedure: Animals: Male CD-1 mice (Charles Rivers Laboratories; Raleigh, NC, USA), 8-11 weeks old at the time of testing, were habituated to the University of Maryland (Baltimore, MD, USA) animal facility for at least one week prior to testing. Mice were group housed in cages of 4-5 per cage with a constant 12-hour light cycle (lights on/off at 07:00/19:00). Food and water were available ad libitum. All experiments were performed during the light phase. All studies were approved by the University of Maryland School of Medicine Animal Care and Use Committee and conducted in accordance with the National Institutes of Health Guide for the Care and Use of Laboratory Animals.
Drugs: (2R,6R)-HNK hydrochloride, (2S,6S)-HNK hydrochloride, (2R,6S)-HNK, and (2S,6R)-HNK were synthesized and characterized (molecular structures were confirmed via ^1H and ^13C NMR, the absolute and relative stereochemistry was assigned by x-ray crystallography, and the purity was determined via LC/MS) at the National Center for Advancing Translation Sciences (National Institutes of Health, Rockville, MD, USA). The synthesis and characterization of (2R,6R)-HNK hydrochloride, (2S,6S)-HNK hydrochloride, (2R,6S)-HNK, and (2S,6R)-HNK were performed as previously described in Morris et al., 2017, Org. Lett. 19:4572-4575, which is incorporated by reference herein in its entirety. (5R)-methyl-(2R,6R)-HNK was obtained from Organix Inc. (Woburn, MA, USA). (5R)-methyl-(2R,6R)-HNK can be synthesized according to the method described in Example 1. All compounds were dissolved in 20% (w/v) cyclodextrin (Sigma Aldrich, USA) in saline and administered intraperitoneally (i.p.) in a volume of 7.5 ml/kg.
Forced swim test: Compounds were tested in separate cohorts of male mice (n=10-18/group; only male mice were tested to control for sex-dependent differences in pharmacokinetics and brain levels) and all injections were performed by a experimenter. (2R,6R)-HNK, (2S,6S)-HNK, (2R,6S)-HNK, (2S,6R)-HNK were administered at the doses of 1, 3, 10, 30, and 100 mg/kg. (5R)-methyl-(2R,6R)-HNK was administered at the doses of 0.3, 1, 3, and 10 mg/kg. (2R,6S)-HNK and (2S,6R)-HNK were dosed as a free base whereas (2R,6R)-HNK and (2S,6S)-HNK, and (5R)-methyl-(2R,6R)-HNK were dosed as a hydrochloride salt. Vehicle and (2R,6R)-HNK (30 mg/kg) were included as controls in each cohort. Twenty-four h after treatment, mice were tested in the forced swim test, according to previously described methods. Injections were performed by a experimenter. Briefly, mice were placed into a clear Plexiglass cylinder (20 cm height×15 cm diameter) filled to a depth of 15 cm with water (23±1° C.) and subjected to a 6-min swim session. Swim sessions were recorded using a digital video camera. The time spent immobile (defined as passive floating with no movements other than those necessary to keep the head above water) was scored during the final 4 min of the session. Sessions were scored by a trained experimenter blind to the treatment groups.
Statistical analysis: All experiments and analyses were performed in a blinded and randomized manner. All injections were performed by a experimenter. Statistical analyses were performed using GraphPad Prism software (v8; GraphPad Software, Inc.). All statistical tests were two-tailed, and significance was assigned at p<0.05. Differences in immobility time were analyzed via one-way ANOVA followed by Holm-Šídák post-hoc comparison (with all groups compared to saline control group) when significance was reached. Significant results are indicated with asterisks in the figures (*p<0.05, **p<0.01, ***p<0.001). Data are presented as the mean±standard error of the mean (SEM).

| SMILES | Holm-Šídák post-hoc comparison, group compared vehicle (p, immobility time) (1 mg/kg i.p.) | Holm-Šídák post-hoc comparison, group compared vehicle (p, immobility time) (3 mg/kg i.p.) | Holm-Šídák post-hoc comparison, group compared vehicle (p, immobility time) (10 mg/kg i.p.) | Holm-Šídák post-hoc comparison, group compared vehicle (p, immobility time) (30 mg/kg i.p.) | Holm-Šídák post-hoc comparison, group compared vehicle (p, immobility time) (100 mg/kg i.p.) | minimum effective dose to reduce immobility time in the forced swim test [mg/kg] | shape of dose response in the forced swim test | fold lower doses than (2R,6R)-HNK for antidepressant-relevant behavioral effects (forced swim test) [fold] | doses at which immobility time in the forced swim test was reduced (effective doses) [mg/kg] | Holm-Šídák post-hoc comparison, group compared vehicle (p, immobility time) (0.3 mg/kg i.p.) | Holm-Šídák post-hoc comparison, group compared vehicle (p, immobility time) (3 mg/kg i.p., hydrochloride) | Holm-Šídák post-hoc comparison, group compared vehicle (p, immobility time) (3 mg/kg i.p., listed as (5R)-Me-(2R,6R)-HNK, hydrochloride) |
| --- | --- | --- | --- | --- | --- | --- | --- | --- | --- | --- | --- | --- |
| N[C@]1(c2ccccc2Cl)CCC[C@H](O)C1=O [(2S,6S)-HNK, (2S,6S)-hydroxynorketamine] | p = 0.9176 | p = 0.8804 | p = 0.9176 | p = 0.0013 | p = 0.0003 | 30 | did not demonstrate U-shaped dose responses |  |  |  |  |  |
| N[C@]1(c2ccccc2Cl)CCC[C@@H](O)C1=O [(2S,6R)-HNK] | p = 0.8466 | p = 0.0404 | p = 0.0404 | p = 0.8466 | p = 0.8466 | 3 | U-shaped dose response curves |  |  |  |  |  |
| N[C@@]1(c2ccccc2Cl)CCC[C@H](O)C1=O [(2R,6S)-HNK] | p = 0.0457 | p = 0.0261 | p = 0.0261 | p = 0.4950 | p = 0.4950 | 1 | U-shaped dose response curves | 10 | 1 |  |  |  |
| C[C@@H]1CC[C@@](N)(c2ccccc2Cl)C(=O)[C@@H]1O.Cl [(5R)-methyl-(2R,6R)-HNK, (2R,5R,6R)-2-amino-2-(2-chlorophenyl)-6-hydroxy-5-methylcyclohexan-1-one hydrochloride] | p = 0.0257 |  | p = 0.0026 |  |  | 1 |  |  | 1 to 10 | p = 0.8074 | 0.06 | p = 0.0671 |
| N[C@@]1(c2ccccc2Cl)CCC[C@@H](O)C1=O [(2R,6R)-HNK, (2R,6R)-hydroxynorketamine] | p = 0.2332 | p = 0.2631 | p = 0.0428 |  | p = 0.0135 | 10 | did not demonstrate U-shaped dose responses |  |  |  |  |  |

From patent publication US20230331655A1, “HYDROXYN[…] AND METHODS OF USE THEREOF” (UNIVERSITY OF MARYLAND, BALTIMORE, priority 2020, published 2023)
